Assay results from paper PMC8095338 (Neuro-oncology Advances, 2021).
Values joined by “and” are separate entries in the source; they are usually repeats but may differ in a detail not shown here. Equal entries are not always repeated. Where two headings read alike, the source gives them in different places.

Tests used:
[1] = cited from earlier work
[2] = cited from earlier work; for maximum tolerated dose: twice daily
[3] = tested on: p-ERK; assay: Immunohistochemistry for p-ERK in minipig tissues; type: in vivo
Method: Formalin-fixed paraffin-embedded minipig tissue including cerebral cortex, cross sections of optic nerve and sciatic nerve, and skin were sectioned. Immunohistochemical staining for phosphor-p44/p42 MAPK (ERK1/2) (Thr202/Tyr204) (Cell Signaling Technology Catalog #4370, Rabbit mAb, 1:100 dilution) was performed using 5 μm sections on a Thermo Fisher Scientific Autostainer 360 (Thermo Fisher Scientific). […] In the skin, epidermis was scored as no (0) or low (1) (<20 epidermal cells per 400× magnification) or high (2) (>20 epidermal cells per 400× magnification) immunoreactivity.

[4] = Plasma PK study in WT and NF1 minipigs (LC-MS/MS, noncompartmental); type: in vivo, minipig; settings: for AUC: read-out: AUC0?∞
Method: Plasma isolation was performed as described in a previous study.[13] […] Tissues were harvested and immediately transferred to cryovials and stored at −80°C until analysis.
Standard curves and controls were generated using corresponding untreated tissue. Skin tissue was treated with collagenase, and all organ tissues were homogenized. Liquid extraction with ethyl acetate was then performed, followed by analysis. […] The chromatographic separation was performed as described.[13] Mass spectrometric detection was performed using multiple reaction monitoring in positive ionization mode. […] Ion source gases 1 and 2 were set at 50 and 50 psi, respectively; the curtain gas was at 20 psi and the collision gas at 4 psi. […] Data acquisition was performed with analyst 1.4.1 software (MDS-SCIEX).
The PK parameters included AUC–time curve from time 0 to ∞ (linear up, log down), Cmax, Tmax, and T1/2.

[5] = tested on: ERK phosphorylation (p-ERK) in PBMCs; assay: Blood PD: p-ERK in ex vivo PMA-stimulated PBMCs (capillary western); design: species or system minipig; settings: Sus scrofa, PBMC, all minipigs (WT and NF1), 2 to 5 h after single oral 7.3 mg/kg
Method: WT (n = 8) and NF1 (n = 8) minipigs received a single human equivalent oral dose of 450 mg (7.3 mg/kg).
PD analysis in blood was performed as described in a previous study, with some modifications.[13] […] Samples were stimulated with phorbol 12-myristate 13-acetate (PMA) (200 nM) or phosphate-buffered saline for 10 min at 37°C within 1 h of being drawn. Red blood cells were removed using standard ammonium-chloride-potassium (ACK) lysis. Peripheral blood mononuclear cells (PBMCs) were snap-frozen as dry pellets and stored at −80°C until analysis. Protein lysates from PBMCs were prepared as described in a previous study.[13] For tissues, protein lysates were prepared by transferring ~[…] of snap frozen tissue to a 1.7-mL microfuge tube containing radioimmunoprecipitation lysis buffer with protease and phosphatase inhibitors. The samples were then homogenized using a rotor-stator homogenizer for 2–4 cycles of 20 s and centrifuged for 10 min at 4°C. Concentrations were measured using the Pierce BCA Protein assay kit (Thermo #23227), according to the manufacturer’s instructions. […] Peaks of the appropriate molecular weight (42/44 kilodaltons) were detected in the resulting electropherograms and chemiluminescent signal was quantified by calculating the area under the peaks. The relative intensity of p-ERK to total ERK was then calculated as a ratio (p-ERK/ERK). […]

[6] = Dose-finding study, plasma PK in wild-type minipigs; type: in vivo, minipig; settings: for Cmax: female, WT minipig, plasma (data not shown)
Method: This was conducted to determine the dose required to reach the human equivalent therapeutic exposure. Human equivalent doses of 50, 75, 300, and 600 mg were tested. Each dose was administered orally to a 5-month-old wild-type female minipig. Blood was collected immediately prior to drug administration (T = 0) and 1, 2, 6, and 24 h after drug administration.

[7] = pediatric patients, 25 mg/m^2, plasma, median (range), ref 6
[8] = pediatric patients, 25 mg/m^2, plasma, median (range), ref 7
[9] = female, minipig, po, 7.3 mg/kg, individual NF1 F minipigs, single oral 7.3 mg/kg
[10] = female, minipig, po, 7.3 mg/kg, individual WT F minipigs, single oral 7.3 mg/kg
[11] = individual NF1 F minipigs, single oral 7.3 mg/kg, 7.3 mg/kg
[12] = individual NF1 M minipigs, single oral 7.3 mg/kg, 7.3 mg/kg
[13] = individual WT F minipigs, single oral 7.3 mg/kg, 7.3 mg/kg
[14] = individual WT M minipigs, single oral 7.3 mg/kg, 7.3 mg/kg
[15] = minipig, po, 7.3 mg/kg, all 16 minipigs (WT and NF1), median (range), single oral 7.3 mg/kg
[16] = minipig, po, 7.4 mg/kg, NF1 minipigs, 7.4 mg/kg single oral dose, median (range)
[17] = minipig, po, 7.4 mg/kg, WT minipigs, 7.4 mg/kg single oral dose, median (range)

For `Cn1cnc2c(F)c(Nc3ccc(Br)cc3Cl)c(C(=O)NOCCO)cc21` [selumetinib], the “AUC0→∞” value ([1]; human, in vivo, 75 mg) is listed as 4510 (19.2) hour × ng/mL, the “AUC0-∞ (systemic exposure)” value ([1]; human, in vivo) is listed as 4510 to 6335 ng·h/mL and the “AUC0-∞ (systemic exposure)” value ([1]; pediatric NF1 patients) is listed as 2520 to 3855 ng·h/mL. For the same compound, the “median maximum concentration (Cmax) in plasma” value ([1]; pediatric dose 25 mg/m^2) was 886 ng/mL, the “AUC0→∞” value [1, 7] was 2520 (2341–3280) hour × ng/mL and the Cmax [1, 7] was 886 (790–1200) ng/mL. For the same compound, the T1/2 [1, 7] was 6.5 (4.7–15.8) hours, the “AUC0→∞” value [1, 8] was 3855 (1780–7250) hour × ng/mL and the Cmax [1, 8] was 1400 (306–3570) ng/mL. The Tmax [1, 8] was 1.4 (1.0–4.0) hours, the maximum tolerated dose ([2]; adult patients with advanced solid malignancy) was 75 mg and the maximum tolerated dose ([2]; pediatric patients with plexiform neurofibroma or low-grade glioma) was 25 mg/m^2. For the same compound, the confirmed partial response ([2]; pediatric patients, 25 mg/m^2 twice daily) was 70 % of pediatric patients, the “p-ERK by IHC in glial cells” value ([3]; NF1 minipig tissues, treated vs untreated) was “reduction in ERK phosphorylation” and the “treated NF1 animals without reduction in ERK phosphorylation by IHC” value ([3]; cerebral white matter tracts, NF1 minipigs) was 4 of 8. It also gave a Clast ([4]; all 16 minipigs (WT and NF1), median (range), single oral 7.3 mg/kg) of 22.7 ng/mL, a k el ([4]; female, minipig, individual WT F minipigs, single oral 7.3 mg/kg) of 2.78e-05 s⁻¹ and a half-life [4, 9] of 450 min. The AUC [4, 9] was 3560 ng·h/mL, the Cmax ([4]; female, minipig, po, 7.3 mg/kg, individual NF1 F minipigs, single oral 7.3 mg/kg, read-out: Cmax) was 812 ng/mL and the half-life [4, 10] was 426 min. The AUC [4, 10] was 3680 ng·h/mL, the Cmax ([4]; female, minipig, po, 7.3 mg/kg, individual WT F minipigs, single oral 7.3 mg/kg, read-out: Cmax) was 636 ng/mL and the Kel ([4]; individual NF1 F minipigs, single oral 7.3 mg/kg) was 0.1 h⁻¹. The “AUC0?∞” value [4, 11] was 5896 ng·h/mL and 5255 ng·h/mL and 4287 ng·h/mL, the Cmax [4, 11] was 678 ng/mL and 633 ng/mL and 571 ng/mL and the T1/2 [4, 11] was 7.6 h and 8.0 h and 8.2 h. The Tmax [4, 11] was 2.0 h and 0.5 h, the “AUC0?∞” value [4, 12] was 4116 ng·h/mL and 6092 ng·h/mL and 4344 ng·h/mL and the Cmax [4, 12] was 1480 ng/mL and 294 ng/mL and 766 ng/mL and 547 ng/mL. For the same compound, the T1/2 [4, 12] was 7.3 h and 14.7 h and 10.6 h and 6.1 h, the Tmax [4, 12] was 2.0 h and the “AUC0?∞” value [4, 13] was 5722 ng·h/mL and 5468 ng·h/mL and 5843 ng·h/mL. The Cmax [4, 13] was 573 ng/mL and 1040 ng/mL and 1020 ng/mL, the T1/2 [4, 13] was 10.1 h and 6.7 h and 7.8 h and the Tmax [4, 13] was 2.0 h and 0.5 h. The Kel ([4]; individual WT M minipigs, single oral 7.3 mg/kg) was 0.1 h⁻¹, the “AUC0?∞” value [4, 14] was 3558 ng·h/mL and 9926 ng·h/mL and 5995 ng·h/mL and 5040 ng·h/mL and the Cmax [4, 14] was 266 ng/mL and 621 ng/mL and 861 ng/mL and 1270 ng/mL. For the same compound, the T1/2 [4, 14] was 6.7 h and 10.6 h and 11.8 h, the Tmax [4, 14] was 5 h and 0.5 h and 2.1 h and the k el ([4]; male, minipig, individual NF1 M minipigs, single oral 7.3 mg/kg) was 2.78e-05 s⁻¹. It also gave an AUC ([4]; male, minipig, po, 7.3 mg/kg, individual NF1 M minipigs, single oral 7.3 mg/kg) of 7930 ng·h/mL, a Tmax ([4]; male, minipig, po, 7.3 mg/kg, individual NF1 M minipigs, single oral 7.3 mg/kg, read-out: Tmax) of 1.1 h and a half-life ([4]; male, minipig, po, 7.3 mg/kg, individual WT M minipigs, single oral 7.3 mg/kg) of 738 min. For the same compound, the k el ([4]; minipig, all 16 minipigs (WT and NF1), median (range), single oral 7.3 mg/kg) was 2.78e-05 s⁻¹, the AUC(0-inf) [4, 15] was 5360 ng·h/mL and the half-life [4, 15] was 474 min. It also gave a Cmax ([4]; minipig, po, 7.3 mg/kg, all 16 minipigs (WT and NF1), median (range), single oral 7.3 mg/kg, read-out: Cmax) of 657 ng/mL, a Tmax ([4]; minipig, po, 7.3 mg/kg, all 16 minipigs (WT and NF1), median (range), single oral 7.3 mg/kg, read-out: Tmax) of ~1 h and an AUC(0-inf) [4, 16] of 4800 ng·h/mL. For the same compound, the half-life [4, 16] was 468 min, the Cmax ([4]; minipig, po, 7.4 mg/kg, NF1 minipigs, 7.4 mg/kg single oral dose, median (range), read-out: Cmax) was 656 ng/mL and the Tmax ([4]; minipig, po, 7.4 mg/kg, NF1 minipigs, 7.4 mg/kg single oral dose, median (range), read-out: Tmax) was 1.1 h. For the same compound, the AUC(0-inf) [4, 17] was 5600 ng·h/mL, the half-life [4, 17] was 540 min and the Cmax ([4]; minipig, po, 7.4 mg/kg, WT minipigs, 7.4 mg/kg single oral dose, median (range), read-out: Cmax) was 749 ng/mL. The inhibition at 7.3 mg/kg ([5]; read-out: maximal inhibition of p-ERK in PBMCs) was ≤ 90%, the inhibition at 7.3 mg/kg ([5]; read-out: mean inhibition of p-ERK in PBMCs) was 60% and the “dose proportionality of selumetinib exposure” value ([6]; WT minipigs, from 75 to 300 mg human equivalent dose) was “dose proportional”. For the same compound, the Cmax ([6]; single oral 300 mg human equivalent dose) was 1000 ng/mL and the Cmax ([6]; single oral 600 mg human equivalent dose) was 670 ng/mL.
